From publication PMC12797155 (ACS Pharmacology & Translational Science, 2025) come the findings set out here.

Where “and” joins values, the source holds several entries; their conditions need not be identical. Identical values can stand only once.

Usually inhibition stands for the relative decrease from the control value, in per cent. By IC50 is commonly meant the concentration needed to halve the response being measured.

In one assay the target is T1, alpha thrombin (Homo sapiens, UniProt P00734).
T1 construct: Alpha-thrombin was ordered from Enzyme Research Laboratories; purchased Enzyme Research Laboratories (South Bend, IN)
In words: Chromogenic thrombin activity assay with substrate S-2238. The assay is classed as biochemical. The settings on record: for inhibition at 0.5 µM: read-out: inhibition of thrombin; for IC50: thrombin activity assay, N = 3, read-out: IC50 against thrombin (S-2238 Thrombin Kinetic Assay). The protocol:
Chromogenic substrate, S-2238, was ordered from DiaPharma (West Chester, OH). Alpha-thrombin was ordered from Enzyme Research Laboratories (South Bend, IN). White, round, clear-bottom 96-well plates were used to run the screen. The plate was read using a BioTek Neo plate reader every minute for 60 min at a wavelength of 405 nm. The substrate control wells were subtracted from the raw counts, and the data was normalized to the thrombin enzyme control wells as a percentage. The percentages were graphed in GraphPad Prism. To investigate thrombin inhibition, we utilized a chromogenic assay with a thrombin substrate, S-2238. Thrombin activity was measured by the production of a visible color change to substrate S-2238. Each assay run included a substrate control, where just substrate was added to the well without thrombin enzyme, an enzyme control (EC), which consisted of thrombin without any inhibitor present, and an inhibitor control (IC), which contained a known thrombin inhibitor, Argatroban.

Assay [1] has as its target T2, PAR4 (Homo sapiens, UniProt Q96RI0).
T2 sequence (Q96RI0 48-385): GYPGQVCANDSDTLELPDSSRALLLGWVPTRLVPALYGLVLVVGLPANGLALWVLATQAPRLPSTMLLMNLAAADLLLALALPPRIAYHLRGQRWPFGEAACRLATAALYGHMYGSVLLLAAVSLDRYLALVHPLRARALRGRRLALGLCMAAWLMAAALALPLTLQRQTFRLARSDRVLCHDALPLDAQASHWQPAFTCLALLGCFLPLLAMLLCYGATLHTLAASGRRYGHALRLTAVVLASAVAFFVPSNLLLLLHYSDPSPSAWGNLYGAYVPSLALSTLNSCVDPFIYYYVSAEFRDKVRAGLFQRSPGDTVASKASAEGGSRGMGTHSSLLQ
As to the kind of experiment: Human platelet flow cytometry assay, PAR4 activation (α-thrombin + vorapaxar). The following applies: human platelets, α-thrombin + vorapaxar; N = 3. Format: cell-based. The text has this: (§1) Same as described previously.
(§2) In the flow cytometry experiments, thrombin activates PAR4 on human platelets. […] In the flow cytometry assay, human platelets are stimulated with thrombin in the presence of either a PAR4 antagonist (BMS-3) or a PAR1 antagonist (Vorapaxar). This determines the IC50 of the test compound against PAR1 and PAR4 activation.
For orientation: In flow cytometry, cells or beads pass a laser one at a time.

For assay [2], the system named is PAR4. The description is as above. Format: cell-based. The settings on record: alpha-thrombin flow cytometry assay, human platelets; PAR4 vs PAR1.
Description: as §1, §2

In a further assay the target is T3, thrombin (Homo sapiens, UniProt P00734).
T3 construct: Alpha-thrombin was ordered from Enzyme Research Laboratories; purchased Enzyme Research Laboratories (South Bend, IN)
In words: Michaelis-Menten enzyme kinetic analysis of thrombin in the presence of PAR4 antagonists. Also noted: unit not given here. The settings on record: thrombin in the presence of PAR4 antagonist. The assay is classed as biochemical. As for the experimental part: Chromogenic substrate, S-2238, was ordered from DiaPharma (West Chester, OH). Alpha-thrombin was ordered from Enzyme Research Laboratories (South Bend, IN). White, round, clear-bottom 96-well plates were used to run the screen. The plate was read using a BioTek Neo plate reader every minute for 60 min at a wavelength of 405 nm. The substrate control wells were subtracted from the raw counts, and the data was normalized to the thrombin enzyme control wells as a percentage. The percentages were graphed in GraphPad Prism.
To also characterize what type of inhibition was occurring with these compounds, we performed Michaelis–Menten enzyme kinetic analysis. […] This is not a surprising finding, as thrombin is believed to interact with PAR4 only at the active cleft of thrombin. PAR4 lacks the hirudin-like binding domain that PAR1 has, which enables PAR1 to have a higher affinity to thrombin.
2 Thrombin inhibition characterization of PAR4 antagonists. A) Michaelis–Menten plot depicting thrombin enzymatic activity in the presence of various PAR4 antagonists. B) Lineweaver–Burk plot of the Michaelis–Menten plot.

Consider `Cn1nc(C(=O)Nc2n[nH]c(-c3c(F)cccc3F)n2)cc1C1CC1` [Compound 12], for which, on alpha thrombin, the inhibition at 0.5 µM is about 70%; the concentration for half-maximal inhibition (IC50) is ~71 nM and 70.6 nM. Also, the 50% inhibitory concentration (IC50) at PAR4 [1] is about 149 nM.

In the case of `CC1CNc2c(cccc2S(=O)(=O)N[C@@H](CCCNC(=N)N)C(=O)N2CC[C@@H](C)C[C@@H]2C(=O)O)C1` (stereo partly drawn) [Argatroban, reference compound], the IC50 on PAR4 [1] came out at 65.2 nM. Further, in the assay with PAR4 [2], the “preference for PAR4 over PAR1” value was “no preference for PAR4 over PAR1”.

Turning to Hirugen [reference compound], in the assay on PAR4 [2], the “preference for PAR4 over PAR1” value is listed as “no preference for PAR4 over PAR1”.

Take `O=C(Nc1n[nH]c(-c2ccc(F)cc2F)n1)c1nn(-c2ccccc2)c2c1CCCC2` [Compound 31]: on alpha thrombin, the inhibition at 0.5 µM is about 70%; the concentration for half-maximal inhibition (IC50) was ~1000 nM and 1090 nM. Further, the IC50 at PAR4 [1] is about 160 nM. Besides, on thrombin, the Vmax was determined as 0.1010.

On to `Cc1nc(NC(=O)c2cc(C(=O)OC(C)(C)C)n(-c3ccccc3)n2)n[nH]1` [Compound 7], for which, on PAR4 [1], the concentration for half-maximal inhibition (IC50) was 6600 nM. Further, the Vmax at thrombin was determined as 0.08588.

Turning to `Cc1cc(C(=O)Nc2nc(-c3cccc(OC(F)F)c3)n[nH]2)nn1-c1ccccc1` [Compound 9], the Vmax at thrombin turned out to be 0.0849.

On to `COc1cccc(-c2nc(NC(=O)c3nn(-c4ccccc4)c4c3CCCC4)n[nH]2)c1` [Compound 32], for which the Vmax on thrombin was determined as 0.09616.

For `COc1ccc2cc(-c3cn4nc(SC)sc4n3)oc2c1` [Compound 6PMJ], the Vmax at thrombin stood at 0.08856.
